Measurements reported in US20250296938A1, “Compounds that Interact with the Ras Superfamily for the Treatment of Cancers, Inflammatory Diseases, Rasopathies, and Fibrotic Disease” (SHY Therapeutics, LLC, priority 2018, published 2025).

Columns and labels:
TNF-α = assay: Mouse TNF alpha quantification assay, LPS-stimulated RAW 264.7 macrophages; format: cell-based; conditions: for inhibition at 10 µM: RAW264.7, 10 μM, LPS (100 ng/ml) added concurrently, 5 hours, RAW 264.7, read-out: TNFα % Inhibition; for inhibition at 30 µM: RAW264.7, 30 μM, LPS-stimulated RAW 264.7 macrophages
Summary of the method: (§1)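 RAW 264.7 cells, serum-starved overnight (0.5% FBS), were pretreated with compounds at 30 μM (0.3% DMSO) for 3 h, then stimulated with LPS 100 ng/ml for 16 h at 37 °C; alternatively, 10 μM compound was added together with LPS for 5 h. Secreted TNF-α and IL-6 were quantified in supernatants by sandwich ELISA.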

IL-6 = assay: Mouse IL6 quantification assay, LPS-stimulated RAW 264.7 macrophages; format: cell-based; conditions: for inhibition at 10 µM: RAW264.7, 10 μM, LPS (100 ng/ml) added concurrently, 5 hours, RAW 264.7; for inhibition at 30 µM: RAW264.7, 30 μM, LPS-stimulated RAW 264.7 macrophages
Summary of the method: as §1

Row | Structure (SMILES) | inhibition at 10 µM (TNF-α) [%] | inhibition at 10 µM (IL-6) [%] | inhibition at 30 µM (TNF-α) [%] | inhibition at 30 µM (IL-6) [%]
1 | Cn1ccc(-c2sc3nc(-c4nccn4C)nc(N[C@H]4C[C@@H](O)C4)c3c2-c2ccccc2)n1 [drawing 773] | 0 | 26 to 50 | – | –
2 | CO[C@H]1CC[C@@H](Nc2nc(-c3ncc[nH]3)nc3sc(-c4ccn(C)n4)c(-c4ccccc4)c23)C1 [drawing 776] | 26 to 50 | 76 to 100 | – | –
3 | COC1CCN(c2nc(-c3nccn3C)nc3sc(-c4cccnc4)c(-c4ccccc4)c23)C1 (stereo not shown) [drawing 704] | – | – | 76 to 100 | 76 to 100
4 | Cn1ccc(-c2sc3nc(-c4nccn4C)nc(NCC4CCOC4)c3c2-c2ccccc2)n1 (stereo not shown) [drawing 682] | – | – | 76 to 100 | 76 to 100
5 | CN(C)CCOCCNc1nc(-c2nccn2C)nc2sc(-c3ccn(C)n3)c(-c3ccccc3)c12 [drawing 772] | 26 to 50 | 76 to 100 | – | –
6 | COCCNc1nc(-c2nccn2C)nc2sc(-c3cccc(OC)c3Cl)c(-c3ccccc3)c12 [drawing 700] | – | – | 76 to 100 | 76 to 100
7 | COCCNc1nc(-c2nccn2C)nc2sc(-c3cc(OC)ccc3Cl)c(-c3ccccc3)c12 [drawing 701] | – | – | 1 to 25 | 51 to 75
8 | COC1CCC(Nc2nc(-c3nccn3C)nc3sc(-c4cccc5[nH]ncc45)c(-c4ccccc4)c23)C1 (stereo not shown) [drawing 753] | 51 to 75 | 76 to 100 | – | –
9 | COCCNc1nc(-c2nccn2C)nc2sc(-c3ccccc3Cl)c(-c3ccc(OC)cc3)c12 [drawing 695] | – | – | 0 | 26 to 50
10 | COC1CCN(c2nc(-c3nccn3C)nc3sc(-c4ccccc4CO)c(-c4ccccc4)c23)C1 (stereo not shown) [drawing 713] | – | – | 76 to 100 | 76 to 100
11 | COCC(C)Nc1nc(-c2nccn2C)nc2sc(-c3ccn(C)n3)c(-c3ccc(OC)cc3)c12 (stereo not shown) [drawing 689] | – | – | 0 | 76 to 100
12 | CO[C@H]1C[C@H](Nc2nc(-c3nccn3C)nc3sc(-c4ccn(C)n4)c(-c4ccccc4)c23)C1 [drawing 771] | 76 to 100 | 76 to 100 | – | –
13 | COCCCN(C)c1nc(-c2nccn2C)nc2sc(-c3ccn(C)n3)c(-c3ccccc3)c12 [drawing 678] | – | – | 51 to 75 | 1 to 25
14 | CO[C@H]1CC[C@@H](Nc2nc(-c3nccn3C)nc(C(=O)N3CCc4c(O)cccc4C3)c2C)C1 [drawing 766] | 1 to 25 | 0 | – | –
15 | COc1c(O)nc(-c2ccccn2)nc1Oc1cnn(C)c1 [drawing 720] | – | – | 0 | 26 to 50
16 | COC1CCC(Nc2nc(-c3nccn3C)nc3sc(-c4cccc5[nH]ncc45)c(C)c23)C1 (stereo not shown) [drawing 760] | 1 to 25 | 51 to 75 | – | –
17 | COc1ccc(-c2c(-c3ccn(C)n3)sc3nc(-c4nccn4C)nc(N4CCC(OC)C4)c23)cc1 (stereo not shown) [drawing 690] | – | – | 0 | 1 to 25
18 | COC1CCN(c2nc(-c3nccn3C)nc3sc(-c4cnc(C5CC5)o4)c(-c4ccccc4)c23)C1 (stereo not shown) [drawing 707] | – | – | 26 to 50 | 76 to 100
19 | CCN(CC)C(=O)c1nc(-c2nccn2C)nc(O)c1O [drawing 738] | – | – | 1 to 25 | 0
20 | COC1CCN(c2nc(-c3nccn3C)nc3sc(-c4ccn(C)n4)c(-c4ccccc4)c23)C1 (stereo not shown) [drawing 680] | – | – | 1 to 25 | 26 to 50
